Data taken from patent US20140315838A1, “Methods of Treating Recurring Bacterial Infection” (Optimer Pharmaceuticals, Inc., priority 2010, published 2014).

Tested on: Clostridium difficile
Experiment: Phase 3 randomized, double-blind clinical trials of 10-day treatment of C. difficile infection: recurrence rate
Assay type: in vivo, human
Details: 10-day oral treatment (fidaxomicin 200 mg bid, vancomycin 125 mg qid), relapse out to 4 weeks after end of treatment
Procedure: Subjects with mild to moderate C. difficile, males and females aged […] with >3 diarrheal (liquid or unformed) stools/day and with a positive enzyme immunoassay for C. difficile toxin or cell cytotoxicity assay and no more than 24 hours of prior treatment for C. difficile were eligible for enrollment. Only subjects with a primary episode or first relapse of disease were eligible. […] Subjects with ileus, WBC >30×10^9/L, toxic megacolon, or concern about life-threatening CDI were excluded from study entry. Subjects with severe underlying disease who were not expected to survive for 72 hours regardless of cause, who had had more than a single occurrence within 3 months, or who had Crohn's disease or ulcerative colitis were also excluded. […] They were evaluated for clinical cure at end of therapy and relapse out to 4 weeks following the end of treatment.

[1] = Stratum: Single Prior Episode of CDI (recurring CDI)

SMILES | Recurrence Rate (Stratum: No Prior Episode of CDI) | Recurrence Rate [1] | Recurrence Rate (Stratum: Single Prior Episode of CDI (recurring CDI), listed as fidaxomicin) | Recurrence Rate (Stratum: Single Prior Episode of CDI (recurring CDI), listed as vancomycin)
CCc1c(Cl)c(O)c(Cl)c(O)c1C(=O)O[C@H]1[C@H](O)[C@H](OC)[C@H](OC/C2=C\C=C\C[C@H](O)/C(C)=C/[C@H](CC)[C@@H](O[C@@H]3OC(C)(C)[C@@H](OC(=O)C(C)C)[C@H](O)[C@@H]3O)/C(C)=C/C(C)=C/C[C@@H]([C@@H](C)O)OC2=O)O[C@@H]1C [Fidaxomicin] | 38/325 (11.6%) | 13/66 (19.6%) | 19.6% | –
CN[C@H](CC(C)C)C(=O)N[C@H]1C(=O)N[C@@H](CC(N)=O)C(=O)N[C@H]2C(=O)N[C@H]3C(=O)N[C@H](C(=O)N[C@H](C(=O)O)c4cc(O)cc(O)c4-c4cc3ccc4O)[C@H](O)c3ccc(c(Cl)c3)Oc3cc2cc(c3O[C@@H]2O[C@H](CO)[C@@H](O)[C@H](O)[C@H]2O[C@H]2C[C@](C)(N)[C@H](O)[C@H](C)O2)Oc2ccc(cc2Cl)[C@H]1O [Vancomycin, reference compound] | – | 22/62 (35.5%) | – | 35.5%
